Experimental data: ChEMBL document CHEMBL1201862, “PubChem BioAssay data set” (2004)
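Method: 48-hour compound exposure of cells in 96-well plates, five concentrations, linear interpolation of endpoints. Here, GI50 denotes the concentration required for 50% inhibition of growth.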 Activity calls are given as the source filed them. Cut-off read from the data, not from the text of the source: active = GI50 up to about 1.1 µM and inactive = higher.

Tests used:
Assay in all cases: growth of human tumour cells (NCI), 48 h
HL-60 = tested on: HL-60
SW-620 = tested on: SW-620
HOP-62 = tested on: HOP-62
HCT-116 = tested on: HCT-116
NCI-H226 = tested on: NCI-H226
MDA-MB-231 = tested on: MDA-MB-231
SR = tested on: SR
A498 = tested on: A498
TK-10 = tested on: TK-10
A549 = tested on: A549
HCC 2998 = tested on: HCC 2998
SF-295 = tested on: SF-295
DU-145 = tested on: DU-145
HCT-15 = tested on: HCT-15
MDA-MB-435 = tested on: MDA-MB-435
KM12 = tested on: KM12
UACC-257 = tested on: UACC-257
NCI-H460 = tested on: NCI-H460
OVCAR-5 = tested on: OVCAR-5
SN12C = tested on: SN12C
LOX IMVI = tested on: LOX IMVI
CAKI-1 = tested on: CAKI-1
SF-539 = tested on: SF-539
NCI-H23 = tested on: NCI-H23
EKVX = tested on: EKVX
OVCAR-8 = tested on: OVCAR-8
IGROV-1 = tested on: IGROV-1
HOP-92 = tested on: HOP-92
SNB-19 = tested on: SNB-19
SK-MEL-5 = tested on: SK-MEL-5
Malme-3M = tested on: Malme-3M
BT-549 = tested on: BT-549
MOLT-4 = tested on: MOLT-4
PC-3 = tested on: PC-3
786-0 = tested on: 786-0
COLO 205 = tested on: COLO 205
HT-29 = tested on: HT-29
Hs-578T = tested on: Hs-578T
MCF7 = tested on: MCF7
CCRF-CEM = tested on: CCRF-CEM
OVCAR-4 = tested on: OVCAR-4
M14 = tested on: M14
SK-MEL-2 = tested on: SK-MEL-2
SNB-75 = tested on: SNB-75
NCI-H522 = tested on: NCI-H522
U-251 = tested on: U-251
NCI/ADR-RES = tested on: NCI/ADR-RES
UO-31 = tested on: UO-31
SK-MEL-28 = tested on: SK-MEL-28
SF-268 = tested on: SF-268
T47D = tested on: T47D
ACHN = tested on: ACHN
K562 = tested on: K562
OVCAR-3 = tested on: OVCAR-3
MDA-N = tested on: MDA-N
UACC-62 = tested on: UACC-62
SK-OV-3 = tested on: SK-OV-3
RXF 393 = tested on: RXF 393
RPMI-8226 = tested on: RPMI-8226

## Cn1c2ccccc2n2c(=O)c(-c3ccc(O)cc3)nnc12
HL-60
  GI50: > 100 µM (inactive)
SW-620
  GI50: > 100 µM (inactive)
HOP-62
  GI50: 42.4 µM (inactive)
HCT-116
  GI50: > 100 µM (inactive)
NCI-H226
  GI50: 46.6 µM (inactive)
MDA-MB-231
  GI50: 31.2 µM (inactive)
SR
  GI50: > 100 µM (inactive)
A498
  GI50: > 100 µM (inactive)
TK-10
  GI50: > 100 µM (inactive)
A549
  GI50: > 100 µM (inactive)
HCC 2998
  GI50: > 100 µM (inactive)
SF-295
  GI50: 18.3 µM (inactive)
DU-145
  GI50: > 100 µM (inactive)
HCT-15
  GI50: > 100 µM
MDA-MB-435
  GI50: > 100 µM (inactive)
KM12
  GI50: > 100 µM (inactive)
UACC-257
  GI50: > 100 µM (inactive)
NCI-H460
  GI50: 87.3 µM (inactive)
OVCAR-5
  GI50: > 100 µM (inactive)
SN12C
  GI50: > 100 µM (inactive)
LOX IMVI
  GI50: 69.8 µM (inactive)
CAKI-1
  GI50: 27.7 µM (inactive)
SF-539
  GI50: 35 µM (inactive)
NCI-H23
  GI50: > 100 µM (inactive)
EKVX
  GI50: 21.2 µM (inactive)
OVCAR-8
  GI50: > 100 µM (inactive)
IGROV-1
  GI50: > 100 µM (inactive)
HOP-92
  GI50: > 100 µM (inactive)
SNB-19
  GI50: 80.4 µM (inactive)
SK-MEL-5
  GI50: > 100 µM (inactive)
Malme-3M
  GI50: > 100 µM (inactive)
BT-549
  GI50: 56 µM (inactive)
MOLT-4
  GI50: > 100 µM (inactive)
PC-3
  GI50: > 100 µM (inactive)
786-0
  GI50: 40.2 µM (inactive)
COLO 205
  GI50: > 100 µM (inactive)
HT-29
  GI50: > 100 µM (inactive)
Hs-578T
  GI50: 34.8 µM (inactive)
MCF7
  GI50: > 100 µM (inactive)
CCRF-CEM
  GI50: > 100 µM (inactive)
OVCAR-4
  GI50: > 100 µM (inactive)
M14
  GI50: > 100 µM (inactive)
SK-MEL-2
  GI50: > 100 µM (inactive)
SNB-75
  GI50: 25.8 µM (inactive)
NCI-H522
  GI50: 96.8 µM (inactive)
U-251
  GI50: 28.2 µM (inactive)
NCI/ADR-RES
  GI50: > 100 µM (inactive)
UO-31
  GI50: > 100 µM (inactive)
SK-MEL-28
  GI50: > 100 µM (inactive)
SF-268
  GI50: 64.7 µM (inactive)
T47D
  GI50: > 100 µM (inactive)
ACHN
  GI50: 70 µM (inactive)

## COc1ccc2c(c1)C(=O)CC1c3cnccc3C(=O)N21 (stereo not drawn)
SW-620
  GI50: > 100 µM (inactive)
K562
  GI50: > 94.8 µM (inactive)
HOP-62
  GI50: > 27.8 µM (inactive)
HCT-116
  GI50: > 73.6 µM (inactive)
NCI-H226
  GI50: > 100 µM (inactive)
MDA-MB-231
  GI50: > 100 µM (inactive)
SR
  GI50: > 85.5 µM (inactive)
A498
  GI50: > 100 µM (inactive)
TK-10
  GI50: > 100 µM (inactive)
A549
  GI50: > 100 µM (inactive)
HCC 2998
  GI50: > 86.1 µM (inactive)
SF-295
  GI50: > 100 µM (inactive)
DU-145
  GI50: > 100 µM (inactive)
HCT-15
  GI50: > 100 µM
OVCAR-3
  GI50: > 100 µM (inactive)
MDA-N
  GI50: > 100 µM (inactive)
MDA-MB-435
  GI50: > 31.6 µM (inactive)
KM12
  GI50: > 100 µM (inactive)
UACC-257
  GI50: > 100 µM (inactive)
NCI-H460
  GI50: > 67.9 µM (inactive)
OVCAR-5
  GI50: > 100 µM (inactive)
SN12C
  GI50: > 100 µM (inactive)
LOX IMVI
  GI50: > 100 µM (inactive)
CAKI-1
  GI50: > 100 µM (inactive)
SF-539
  GI50: > 100 µM (inactive)
NCI-H23
  GI50: > 100 µM (inactive)
EKVX
  GI50: > 79.4 µM (inactive)
OVCAR-8
  GI50: > 100 µM (inactive)
IGROV-1
  GI50: > 85.1 µM (inactive)
HOP-92
  GI50: > 100 µM (inactive)
SNB-19
  GI50: > 72.1 µM (inactive)
SK-MEL-5
  GI50: > 100 µM (inactive)
Malme-3M
  GI50: > 100 µM (inactive)
BT-549
  GI50: > 100 µM (inactive)
MOLT-4
  GI50: > 100 µM (inactive)
PC-3
  GI50: > 100 µM (inactive)
786-0
  GI50: > 100 µM (inactive)
UACC-62
  GI50: > 63.7 µM (inactive)
COLO 205
  GI50: > 100 µM (inactive)
SK-OV-3
  GI50: > 100 µM (inactive)
HT-29
  GI50: > 100 µM (inactive)
MCF7
  GI50: > 100 µM (inactive)
OVCAR-4
  GI50: > 100 µM (inactive)
M14
  GI50: > 100 µM (inactive)
SK-MEL-2
  GI50: > 100 µM (inactive)
SNB-75
  GI50: > 100 µM (inactive)
NCI-H522
  GI50: > 100 µM (inactive)
U-251
  GI50: > 73.5 µM (inactive)
NCI/ADR-RES
  GI50: > 100 µM (inactive)
UO-31
  GI50: 49.1 µM (inactive)
SK-MEL-28
  GI50: > 91.2 µM (inactive)
SF-268
  GI50: > 100 µM (inactive)
T47D
  GI50: > 100 µM (inactive)
RXF 393
  GI50: > 75.9 µM (inactive)
RPMI-8226
  GI50: > 92 µM (inactive)
ACHN
  GI50: > 100 µM (inactive)
